Like-named read-outs stand apart in the source and are kept apart here.
Key:
[1] = Pharmacokinetics study in Sprague–Dawley rats; type: in vivo; conditions: rat
Protocol: Four to 6 weeks old Sprague–Dawley rats [Crl: CD (SD)] (SPF/VAF) were purchased from Charles River (Wilmington MA). Animals were quarantined/acclimated for 2–6 weeks prior to dose initiation. Sprague–Dawley rats were given oral administration of test compounds (20% PG, 5% Solutol, and 75% of 20% HP-β-CD in water) at different dose levels. After treatment with the compounds, whole blood was collected from each study animal by puncture of the tail vein (0.4 mL of whole blood from rats) into tubes containing K2EDTA at each time point. The plasma samples were divided into 2 aliquots (approximately equal in volume) and stored frozen at −75 ± 15 °C within 2 h of the collection until analysis.
The stock solution of the test compound (0.01 M) in DMSO was prepared and stored at −20 ± 5 °C. The desired serial concentrations of working reference analyte solutions were achieved by diluting a stock analyte solution with 50% acetonitrile (0.1% formic acid) in water solution. The bioanalytical LC–MS/MS method was developed for quantitative determination of each test compound in Sprague–Dawley rat plasma with acceptable selectivity, sensitivity, calibration curve, precision, and accuracy. The analytical method is applicable for the determination of test compounds in Sprague–Dawley rat plasma with a lower limit of quantification of 10.0 ng/mL and an upper limit of quantification of 5000 ng/mL. Five microliters of diluted supernatant was injected into the LC–MS/MS system (TSQ Quantis) and a SynergiTM 4 μm Fusion-RP 80 Å (50 × 2 mm) column using gradient elution and a Triple Quad mass spectrometer) for quantitative analysis. The mobile phases used were 0.1% formic acid in deionized water and 0.1% formic acid in acetonitrile. The pharmacokinetic parameters T1/2 (the biological half-life), Cmax (maximal concentration), Tmax (time at which Cmax is observed), and AUC (area under the plasma concentration–time curve) were calculated from the plasma concentration versus time data using WinNonlin (PhoenixTM, version 8.1, Mountain View, CA, USA).

Ba/F3 ROS1-G2032R = experiment: Antiproliferation assay; type: cell-based, mouse; conditions: Mus musculus, BaF3; Ba/F3 cells, cell growth inhibition, 72 h
[2] = tested on: Ba/F3 CD74-ROS1 non mutant; experiment: Antiproliferation assay (Alamar Blue, 72 h); type: cell-based, mouse; conditions: Ba/F3 cells, cell growth inhibition
[3] = Metabolic stability in human microsomes; type: in vitro ADME; conditions: human, pooled human microsomes, pH 7.4, 250 nM compound, NADPH, 37 °C; for half-life at 1 h, 0.25 µM: read-out: metabolic stability in human microsomes T1/2
Protocol: (§1) Pooled human and rat microsomes were prepared and stored at −80 °C prior to use. A master-mix containing microsome, phosphate buffer, and test compound (9 series) solution was made as follows: (1) 3 μL of microsome (20 mg/mL) was diluted with mixed 30 μL of potassium phosphate buffer (pH 7.4; 10×) and 246 μL of water; (2) 3 μL of 25 μM drug solution was added to the microsome; (3) the master solution was prewarmed at 37 °C for 5 min. NADPH solution A (15 μL) and NADPH solution B (3 μL) from Promega were added to the above-mentioned master solution to initiate the reaction. The final concentration of 9 compounds in the reaction system was 250 nM. An aliquot of 20 μL was pipetted from the reaction solution and stopped by the addition of 180 μL of cold MeCN containing 25 ng of Tamoxifen-(N,N-dimethyl-13C2)-15N as an internal standard at the designated time points (0, 5, 15, 30, 45, and 60 min). The incubation solution was vortexed-mixed (800 rpm/10 min) and centrifuged at 3500 rpm for 10 min to precipitate proteins. The supernatant was collected and used for the LC/MS/MS analysis. The natural log of the remaining percentage of the test compound was plotted against time and the gradient of the line was determined.

Log P measurement = type: physicochemical
Source text: An important physicochemical property for a PROTAC molecule is its lipophilicity that largely dictates its pharmaceutical performance such as absorption, permeability, and distribution.

[4] = Pharmacokinetics study in Sprague–Dawley rats; type: in vivo; conditions: rat; remark: listed apart in the source
ROS1 = ROS1 degradation in Ba/F3 cells (WES immunoblotting); type: cell-based; conditions: for DC50: concentration needed to reduce ROS1 protein by 50%, Ba/F3 cells; for Dmax (%) (ROS1): maximal degradation of ROS1 in Ba/F3 cells
How it was run: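 ROS1 and phospho-ROS1 (Tyr2274/2334) in Ba/F3 lysates quantified by capillary immunoassay (WES) with chemiluminescent detection, duplicate experiments. Levels expressed as AUC of the chemiluminescence peak.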

[5] = Metabolic stability in rat microsomes; type: in vitro ADME; conditions: rat, pooled rat microsomes, pH 7.4, 250 nM compound, NADPH, 37 °C; for half-life at 1 h, 0.25 µM: read-out: metabolic stability in rat microsomes T1/2
Protocol: as §1

[6] = tested on: Ba/F3 ROS1 (SLC34A2) V2098I; experiment: Antiproliferation assay; type: cell-based; conditions: Mus musculus, BaF3; Ba/F3 cell line
Protocol: Ba/F3 immortalized murine bone marrow–derived pro-B cells were obtained from Creative Biogene (Shirley, NY) and cultured in RPMI supplemented with 10% FBS and IL3 (0.5 ng/mL). Ba/F3 cells expressing ROS1 variants were maintained in RPMI supplemented with 10% FBS and puromycin (0.7 mg/mL). […] Each compound was dissolved in DMSO and serially diluted in RPMI for cell culture experiments.
(§2) To assess the 72 h effect of drug treatment on cell proliferation, 2000 to 3000 cells were plated in replicates of three in 96-well plates. The plates were placed in an incubator at 37 °C, 5% CO2 for 72 h. Following drug treatments, the cells were incubated with the Alamar Blue Assay reagent (BioRad), 5 μL each well for 4 h at 37 °C and 5% CO2. Luminescence was measured on a multiplate reader and analyzed. […] IC50 values were determined using a nonlinear regression model with a sigmoidal dose response in GraphPad. The data were collected based on triplicate experiments, and presented as mean ± SD.

[7] = tested on: Ba/F3 ROS1 (SLC34A2) G2032R-F2075C; experiment: Antiproliferation assay; type: cell-based; conditions: Mus musculus, BaF3; Ba/F3 cell line
Protocol: (§3) Ba/F3 immortalized murine bone marrow–derived pro-B cells were obtained from Creative Biogene (Shirley, NY) and cultured in RPMI supplemented with 10% FBS and IL3 (0.5 ng/mL). Ba/F3 cells expressing ROS1 variants were maintained in RPMI supplemented with 10% FBS and puromycin (0.7 mg/mL). Crizotinib, ceritinib, brigatinib, repotrectinib, and lorlatinib were purchased from MedChem Express. Each compound was dissolved in DMSO and serially diluted in RPMI for cell culture experiments.
as §2

[8] = tested on: Ba/F3 ROS1 (SLC34A2) G2032R-D2113G; experiment: Antiproliferation assay; type: cell-based; conditions: Mus musculus, BaF3; Ba/F3 cell line
Protocol: as §3, §2

[9] = tested on: Ba/F3 ROS1 (SLC34A2) F2075C-G1837E; experiment: Antiproliferation assay; type: cell-based; conditions: Mus musculus, BaF3; Ba/F3 cell line
Protocol: as §3, §2

Ba/F3 ROS1 L2086F = experiment: Antiproliferation assay; type: cell-based; conditions: Mus musculus, BaF3; Ba/F3 cells, cell growth inhibition
Source text: To assess targeted degradation of ROS1 fusion proteins, we first established a mouse pro-B cell line Ba/F3 as a model expressing the CD74-ROS1 oncogene or CD74-ROS1 with clinically observed secondary/tertiary mutations. The Ba/F3 cell line is dependent on interleukin-3 for survival and proliferation. Upon transduction of oncogenic ROS1, Ba/F3 cells become independent of interleukin-3 but dependent on the transduced driver gene. The Ba/F3 models have been effectively employed in the discovery and preclinical development of next generation ROS1 inhibitors.[11],[14],[15] We have tested ROS1 inhibitors against these Ba/F3 cells to validate their sensitivity and resistance to ROS1 inhibition.
as §3, §2
(§4) cDNA encoding CD74-ROS1 or mutant CD74–ROS1 was cloned into retroviral expression vectors (pLenti), and viruses were generated in HEK293T cells by transfecting with packaging plasmids. The resulting virus was used to infect Ba/F3 cells. After retroviral infection, Ba/F3 cells were selected by incubation with puromycin (0.7 mg/mL) for 2 weeks. For Ba/F3 cells infected by the CD74–ROS1 variants, IL3 was withdrawn from the culture medium at least 2 weeks before the experiments.

Ba/F3 ROS1 (CD74) L2086F = experiment: Antiproliferation assay; type: cell-based; conditions: Mus musculus, BaF3; Ba/F3 cell line
Protocol: as §3, §2, §4

Ba/F3 ROS1 (CD74) G2032R = experiment: Antiproliferation assay; type: cell-based; conditions: Mus musculus, BaF3; Ba/F3 cell line
Protocol: as §3, §2, §4

[10] = tested on: Ba/F3 ROS1 (CD74) S1986F-G2032R; experiment: Antiproliferation assay; type: cell-based; conditions: Mus musculus, BaF3; Ba/F3 cell line
Protocol: as §3, §2, §4

[11] = tested on: Ba/F3 ROS1 (CD74) S1986F-G2032R-L2086F; experiment: Antiproliferation assay; type: cell-based; conditions: Mus musculus, BaF3; Ba/F3 cell line
Protocol: as §3, §2, §4

[12] = tested on: Ba/F3 ROS1 (CD74) S1986F-L2086F; experiment: Antiproliferation assay; type: cell-based; conditions: Mus musculus, BaF3; Ba/F3 cell line
Protocol: as §3, §2, §4

[13] = tested on: Ba/F3 ROS1 (CD74) G2032R-L2086F; experiment: Antiproliferation assay; type: cell-based; conditions: Mus musculus, BaF3; Ba/F3 cell line
Protocol: as §3, §2, §4

[14] = Sprague-Dawley [Crl: CD (SD)], plasma, 10 mg/kg po

`COc1cc(N2CCC(N3CCN(CC4CCN(c5ccc6c(c5)C(=O)N(C5CCC(=O)NC5=O)C6=O)CC4)CC3)CC2)ccc1Nc1ncc(Cl)c(Nc2ccccc2P(C)(C)=O)n1` (stereo not drawn) [9f, 5-(4-((4-(1-(4-((5-Chloro-4-((2-(dimethylphosphoryl)phenyl)amino)pyrimidin-2-yl)amino)-3-methoxyphenyl)piperidin-4-yl)piperazin-1-yl)methyl)piperidin-1-yl)-2-(2,6-dioxopiperidin-3-yl)isoindoline-1,3-dione] gave a Cmax at 24 h [1, 14] of 284 ng/mL, a half-life [1, 14] of 8.32 h and a bioavailability ([1]; Sprague-Dawley [Crl: CD (SD)], plasma, 10 mg/kg po vs 1 mg/kg iv) of 9.8%. It also gave an AUC ([1]; Sprague-Dawley [Crl: CD (SD)], plasma, 10 mg/kg po, read-out: AUC (po)) of 3030 ng·h/mL, a Tmax ([1]; Sprague-Dawley [Crl: CD (SD)], plasma, 10 mg/kg po, read-out: Tmax) of 2 h and an IC50 (Ba/F3 ROS1-G2032R) of 27 ± 10 nM. It also gave an IC50 [2] of 11 ± 2 nM, an IC50 ([2]; Mus musculus, BaF3, 72 h) of 11.2 nM and a microsomal CLint at 1 h, 0.25 µM [3] of 63.4 µL/min/mg. For the same compound, the half-life at 1 h, 0.25 µM [3] was 0.917 h, the logP (Log P measurement) was 2.88 and the “AUC (iv)” value ([4]; 1 mg/kg iv) was 3093 ng·h/mL. The DC50 (ROS1) was 13 nM, the “Dmax (%) (ROS1)” value (ROS1) was 99% and the microsomal CLint at 1 h, 0.25 µM [5] was 8.8 µL/min/mg. For the same compound, the half-life at 1 h, 0.25 µM [5] was 2.62 h.
In the case of `COc1cc(N2CCN(CC3CN(c4ccc5c(c4)CN(C4CCC(=O)NC4=O)C5=O)C3)CC2)ccc1Nc1ncc(Cl)c(Nc2ccccc2P(C)(C)=O)n1` (stereo not drawn) [9m, 3-(5-(3-((4-(4-((5-Chloro-4-((2-(dimethylphosphoryl)phenyl)amino)pyrimidin-2-yl)amino)-3-methoxyphenyl)piperazin-1-yl)methyl)azetidin-1-yl)-1-oxoisoindolin-2-yl)piperidine-2,6-dione], the Cmax at 24 h ([1]; Sprague-Dawley [Crl: CD (SD)], plasma, 5 mg/kg po) is reported as 145 ng/mL, the bioavailability ([1]; Sprague-Dawley [Crl: CD (SD)], plasma, 5 mg/kg po vs 0.5 mg/kg iv) is reported as 4.8% and the “AUC (po)” value ([1]; 5 mg/kg po) is reported as 1032 ng·h/mL. The T1/2 ([1]; 5 mg/kg po) was 8.88 h, the Tmax ([1]; 5 mg/kg po) was 1 h and the IC50 (Ba/F3 ROS1-G2032R) was 120 ± 27 nM. It also gave an IC50 ([2]; Mus musculus, BaF3, 72 h) of 8 ± 0.9 nM, a microsomal CLint at 1 h, 0.25 µM [3] of 94.5 µL/min/mg and a half-life at 1 h, 0.25 µM [3] of 0.615 h. The logP (Log P measurement) was 3.07, the “AUC (iv)” value ([4]; 0.5 mg/kg iv) was 2151 ng·h/mL and the DC50 (ROS1) was 9 nM. The “Dmax (%) (ROS1)” value (ROS1) was 94%, the microsomal CLint at 1 h, 0.25 µM [5] was 9.6 µL/min/mg and the half-life at 1 h, 0.25 µM [5] was 2.41 h.
`C[C@H]1CNC(=O)c2cnn3ccc(nc23)N[C@H](C)c2cc(F)ccc2O1` [repotrectinib] gave an IC50 [6] of 3.5 ± 0.6 nM, an IC50 [7] of over 2000 nM and an IC50 [8] of 25 ± 6.8 nM. For the same compound, the IC50 [9] was 0.4 ± 0.2 nM, the IC50 (Ba/F3 ROS1 L2086F) was over 2000 nM and the IC50 (Ba/F3 ROS1 (CD74) L2086F) was 588 ± 76 nM. It also gave an IC50 (Ba/F3 ROS1 (CD74) G2032R) of 23.5 ± 3.8 nM, an IC50 [10] of 31.4 ± 7.3 nM and an IC50 [11] of over 2000 nM. For the same compound, the IC50 [12] was over 2000 nM and the IC50 [13] was 181 ± 22.5 nM.
